IC50 data for 17 compounds are collected here from patent US20090304692A1, “TRIAZINE COMPOUNDS AS PI3 KINASE AND MTOR INHIBITORS” (Wyeth, priority 2008, published 2009).

Read-outs that look alike come from different tables or passages of the source.

For one assay, the target named is Human mTOR (FLAG-TOR) (Homo sapiens, UniProt P42345). The experiment in a line: mTOR kinase assay (DELFIA format, purified enzyme). It counts as biochemical. Conditions: read-out: IC50 mTOR.
Assay [1] concerns human breast MDA-MB-361 tumor cell line. The experiment in a line: In vitro cell culture growth assay (MTS), MDA-MB-361. It is filed as cell-based. Conditions: Homo sapiens, MTS cell growth assay, three days after drug treatment, MDA-MB-361 cells, read-out: IC50 MDA-MB-361.
The test system of assay [2] is human prostate PC3-mm2 tumor cell line. As to the kind of experiment: In vitro cell culture growth assay (MTS), PC3-mm2. Conditions: Homo sapiens, PC3MM2, 72 h, MTS cell growth assay, three days after drug treatment, PC3-mm2 cells; read-out: IC50 PC3-mm2. It is filed as cell-based.
The target of another assay is PI3K-α (Homo sapiens, UniProt P42336). As to the kind of experiment: PI3K-alpha fluorescence polarization assay. Conditions: read-out: IC50 PI3Kα.
Chain of PI3K-α (P42336 whole entry, species assumed): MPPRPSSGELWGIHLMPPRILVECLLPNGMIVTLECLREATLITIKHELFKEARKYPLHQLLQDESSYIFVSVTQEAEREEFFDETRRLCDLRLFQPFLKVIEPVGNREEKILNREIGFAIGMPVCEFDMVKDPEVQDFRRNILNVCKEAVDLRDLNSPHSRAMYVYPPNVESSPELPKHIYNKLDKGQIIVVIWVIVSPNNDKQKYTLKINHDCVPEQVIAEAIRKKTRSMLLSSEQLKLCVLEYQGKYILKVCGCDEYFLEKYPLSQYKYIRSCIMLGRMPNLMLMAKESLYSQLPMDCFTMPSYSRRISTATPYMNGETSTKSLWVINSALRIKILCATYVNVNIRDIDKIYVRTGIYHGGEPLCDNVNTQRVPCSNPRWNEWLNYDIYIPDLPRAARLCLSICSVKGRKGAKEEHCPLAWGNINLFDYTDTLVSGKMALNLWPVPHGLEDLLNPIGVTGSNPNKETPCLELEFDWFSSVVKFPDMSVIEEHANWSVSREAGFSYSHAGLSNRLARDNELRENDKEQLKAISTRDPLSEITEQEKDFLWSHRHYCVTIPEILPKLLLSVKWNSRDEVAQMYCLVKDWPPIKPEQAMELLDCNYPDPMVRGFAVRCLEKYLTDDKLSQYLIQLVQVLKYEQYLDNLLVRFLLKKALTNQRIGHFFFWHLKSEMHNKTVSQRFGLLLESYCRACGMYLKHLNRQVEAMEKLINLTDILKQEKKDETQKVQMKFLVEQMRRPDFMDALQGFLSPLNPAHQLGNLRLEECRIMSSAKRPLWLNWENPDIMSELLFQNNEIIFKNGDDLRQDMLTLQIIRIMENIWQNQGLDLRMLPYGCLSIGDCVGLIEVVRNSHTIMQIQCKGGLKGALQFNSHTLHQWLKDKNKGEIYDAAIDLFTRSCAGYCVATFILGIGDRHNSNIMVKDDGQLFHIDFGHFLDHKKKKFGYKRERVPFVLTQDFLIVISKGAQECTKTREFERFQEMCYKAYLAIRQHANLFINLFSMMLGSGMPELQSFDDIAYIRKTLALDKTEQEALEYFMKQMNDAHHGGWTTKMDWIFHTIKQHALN
Chain of PI3K-α (P27986 whole entry partner, species assumed): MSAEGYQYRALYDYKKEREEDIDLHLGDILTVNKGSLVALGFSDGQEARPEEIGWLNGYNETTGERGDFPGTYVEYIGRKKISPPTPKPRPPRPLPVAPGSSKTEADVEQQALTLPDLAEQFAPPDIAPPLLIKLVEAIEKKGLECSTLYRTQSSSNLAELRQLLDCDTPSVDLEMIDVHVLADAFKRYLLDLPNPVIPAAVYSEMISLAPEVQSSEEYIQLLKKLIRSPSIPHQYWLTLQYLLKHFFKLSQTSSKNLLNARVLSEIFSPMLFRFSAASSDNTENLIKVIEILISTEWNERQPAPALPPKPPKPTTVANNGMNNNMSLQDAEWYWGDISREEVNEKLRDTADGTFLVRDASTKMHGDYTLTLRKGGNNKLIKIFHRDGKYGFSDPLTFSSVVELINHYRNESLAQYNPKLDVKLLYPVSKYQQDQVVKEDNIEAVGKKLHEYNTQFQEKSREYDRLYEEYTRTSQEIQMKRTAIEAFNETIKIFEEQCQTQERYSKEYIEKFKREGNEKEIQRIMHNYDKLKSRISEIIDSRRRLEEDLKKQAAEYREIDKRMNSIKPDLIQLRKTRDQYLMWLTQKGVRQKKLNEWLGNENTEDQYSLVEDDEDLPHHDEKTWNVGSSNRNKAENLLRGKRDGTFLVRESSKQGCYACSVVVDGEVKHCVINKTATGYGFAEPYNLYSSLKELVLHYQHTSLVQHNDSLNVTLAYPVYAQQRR
A further assay concerns the target PI3K-γ (Homo sapiens, UniProt P48736). As to the kind of experiment: PI3K-gamma fluorescence polarization assay. Conditions: read-out: IC50 PI3Kγ.

Chain of PI3K-γ (P48736 whole entry, species assumed): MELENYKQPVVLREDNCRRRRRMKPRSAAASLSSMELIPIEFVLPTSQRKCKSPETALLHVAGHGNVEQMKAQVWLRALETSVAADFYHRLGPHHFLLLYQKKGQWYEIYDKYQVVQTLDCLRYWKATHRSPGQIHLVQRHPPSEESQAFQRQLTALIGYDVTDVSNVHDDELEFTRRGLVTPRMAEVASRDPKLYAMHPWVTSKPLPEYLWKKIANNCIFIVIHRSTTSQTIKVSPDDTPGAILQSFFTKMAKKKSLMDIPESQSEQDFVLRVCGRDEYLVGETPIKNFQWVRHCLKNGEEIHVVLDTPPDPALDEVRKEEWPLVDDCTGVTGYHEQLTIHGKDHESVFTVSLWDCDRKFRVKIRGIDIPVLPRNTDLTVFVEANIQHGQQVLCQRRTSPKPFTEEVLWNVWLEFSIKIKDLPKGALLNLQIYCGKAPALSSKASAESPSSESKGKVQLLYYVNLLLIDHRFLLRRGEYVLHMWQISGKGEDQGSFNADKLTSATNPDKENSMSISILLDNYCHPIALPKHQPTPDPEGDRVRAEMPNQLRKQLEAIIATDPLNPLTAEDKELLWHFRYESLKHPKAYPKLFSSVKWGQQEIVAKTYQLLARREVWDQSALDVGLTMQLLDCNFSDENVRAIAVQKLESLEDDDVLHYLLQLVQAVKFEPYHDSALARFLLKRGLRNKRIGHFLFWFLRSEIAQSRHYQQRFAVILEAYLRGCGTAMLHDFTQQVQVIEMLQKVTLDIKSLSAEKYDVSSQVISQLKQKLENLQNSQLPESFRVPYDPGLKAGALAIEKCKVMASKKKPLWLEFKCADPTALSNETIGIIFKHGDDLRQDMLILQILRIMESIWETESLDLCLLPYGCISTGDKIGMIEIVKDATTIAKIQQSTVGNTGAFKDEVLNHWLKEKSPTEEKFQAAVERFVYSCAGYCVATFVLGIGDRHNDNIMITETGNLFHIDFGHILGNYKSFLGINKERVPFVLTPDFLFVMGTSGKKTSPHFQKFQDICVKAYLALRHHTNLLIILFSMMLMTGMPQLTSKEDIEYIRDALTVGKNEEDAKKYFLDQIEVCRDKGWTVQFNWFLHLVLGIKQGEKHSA
Chain of Human mTOR (FLAG-TOR) (P42345 1360-2549 limits assumed): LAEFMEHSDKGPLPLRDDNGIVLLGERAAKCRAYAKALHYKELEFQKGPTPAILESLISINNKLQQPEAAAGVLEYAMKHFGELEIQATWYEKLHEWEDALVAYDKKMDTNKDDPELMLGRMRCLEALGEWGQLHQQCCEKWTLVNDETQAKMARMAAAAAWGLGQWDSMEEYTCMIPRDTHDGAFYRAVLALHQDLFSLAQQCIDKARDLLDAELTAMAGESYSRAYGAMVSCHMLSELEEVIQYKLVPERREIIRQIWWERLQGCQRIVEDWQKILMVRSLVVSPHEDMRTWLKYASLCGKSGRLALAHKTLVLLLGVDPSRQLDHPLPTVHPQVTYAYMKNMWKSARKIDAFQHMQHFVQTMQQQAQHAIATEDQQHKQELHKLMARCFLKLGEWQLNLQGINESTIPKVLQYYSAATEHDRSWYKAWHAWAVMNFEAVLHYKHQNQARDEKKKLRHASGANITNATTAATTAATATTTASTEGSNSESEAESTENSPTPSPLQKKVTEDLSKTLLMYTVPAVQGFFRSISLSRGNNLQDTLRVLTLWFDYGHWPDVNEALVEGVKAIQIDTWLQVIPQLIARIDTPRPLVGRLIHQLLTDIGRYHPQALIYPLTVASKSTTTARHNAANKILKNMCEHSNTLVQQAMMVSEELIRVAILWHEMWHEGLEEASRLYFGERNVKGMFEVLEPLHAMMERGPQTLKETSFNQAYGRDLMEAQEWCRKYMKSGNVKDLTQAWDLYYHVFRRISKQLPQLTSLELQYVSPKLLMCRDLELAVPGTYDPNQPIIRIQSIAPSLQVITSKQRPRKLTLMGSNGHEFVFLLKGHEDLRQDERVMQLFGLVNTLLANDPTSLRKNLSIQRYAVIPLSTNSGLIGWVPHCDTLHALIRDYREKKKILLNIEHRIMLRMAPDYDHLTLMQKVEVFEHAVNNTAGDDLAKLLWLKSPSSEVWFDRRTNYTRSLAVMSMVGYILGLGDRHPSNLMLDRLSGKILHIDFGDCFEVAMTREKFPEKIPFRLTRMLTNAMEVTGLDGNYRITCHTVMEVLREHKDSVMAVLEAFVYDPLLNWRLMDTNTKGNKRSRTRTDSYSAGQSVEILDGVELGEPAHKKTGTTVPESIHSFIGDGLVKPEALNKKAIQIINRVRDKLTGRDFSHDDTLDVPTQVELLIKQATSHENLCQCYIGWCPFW

As to `O=C(Nc1ccc(C(=O)NCCN2CCCCC2)cc1)Nc1ccc(-c2nc(N3CCOCC3)nc(N3C4CCC3COC4)n2)cc1` [Example 759, 4-[({4-[4-morpholin-4-yl-6-(3-oxa-8-azabicyclo[3.2.1]oct-8-yl)-1,3,5-triazin-2-yl]phenyl}carbamoyl)amino]-N-(2-piperidin-1-ylethyl)benzamide], the IC50 on Human mTOR (FLAG-TOR) came to 0.16 nM; in assay [1] (72 h), 1 nM; in assay [2] it was 10 nM; at PI3K-α, 2 nM; on PI3K-γ, 38 nM.
With `O=C(Nc1ccc(C(=O)N2CCC(N3CCCC3)CC2)cc1)Nc1ccc(-c2nc(N3CCOCC3)nc(N3C4CCC3COC4)n2)cc1` [Example 761, 1-{4-[4-morpholin-4-yl-6-(3-oxa-8-azabicyclo[3.2.1]oct-8-yl)-1,3,5-triazin-2-yl]phenyl}-3-{4-[(4-pyrrolidin-1-ylpiperidin-1-yl)carbonyl]phenyl}urea], the IC50 at Human mTOR (FLAG-TOR) is 0.12 nM; in assay [1] (MDA-MB-361, 72 h) it was < 3 nM; in assay [2], 4 nM; at PI3K-α, 2 nM; on PI3K-γ, 19 nM.
For `O=C(Nc1ccc(C(=O)N2CCSCC2)cc1)Nc1ccc(-c2nc(N3CCOCC3)nc(N3C4CCC3COC4)n2)cc1` [Example 762, 1-{4-[4-morpholin-4-yl-6-(3-oxa-8-azabicyclo[3.2.1]oct-8-yl)-1,3,5-triazin-2-yl]phenyl}-3-[4-(thiomorpholin-4-ylcarbonyl)phenyl]urea] the same measures were 0.428 nM, 8 nM, 7 nM, 2.7 nM and 19.7 nM.
In the case of `O=C(Nc1ccc(C(=O)N2CCOCC2)cc1)Nc1ccc(-c2nc(N3CCOCC3)nc(N3C4CCC3COC4)n2)cc1` [Example 763, 1-[4-(morpholin-4-ylcarbonyl)phenyl]-3-{4-[4-morpholin-4-yl-6-(3-oxa-8-azabicyclo[3.2.1]oct-8-yl)-1,3,5-triazin-2-yl]phenyl}urea], the concentration for half-maximal inhibition (IC50) on Human mTOR (FLAG-TOR) was determined as 0.445 nM; in assay [1] (MDA-MB-361, 72 h) it was 4 nM; in assay [2], 7 nM; at PI3K-α, 3 nM; at PI3K-γ, 24 nM.
Take `O=C(Nc1ccc(C(=O)O)cc1)Nc1ccc(-c2nc(N3CCOCC3)nc(N3C4CCC3COC4)n2)cc1` [Example 764, 4-[({4-[4-morpholin-4-yl-6-(3-oxa-8-azabicyclo[3.2.1]oct-8-yl)-1,3,5-triazin-2-yl]phenyl}carbamoyl)amino]benzoic acid]: the IC50 came out at 0.21 nM at Human mTOR (FLAG-TOR); 628 nM in assay [1] (MDA-MB-361, 72 h); 678 nM in assay [2]; 8.5 nM on PI3K-α; 67.5 nM at PI3K-γ.
As for `O=C(Nc1ccncc1)Nc1ccc(-c2nc(N3CCOCC3)nc(N3C4COCC3COC4)n2)cc1` [Example 765, 1-{4-[4-(3,7-dioxa-9-azabicyclo[3.3.1]non-9-yl)-6-morpholin-4-yl-1,3,5-triazin-2-yl]phenyl}-3-pyridin-4-ylurea], the IC50 on Human mTOR (FLAG-TOR) is 0.195 nM; in assay [1] (72 h), 21 nM; in assay [2] it was 27 nM; at PI3K-α, 8.5 nM; on PI3K-γ, 78.5 nM.
Taken in the same sequence, the figures for `CN1CCN(c2ccc(NC(=O)Nc3ccc(-c4nc(N5CCOCC5)nc(N5C6CCC5COC6)n4)cc3)cn2)CC1` [Example 766, 1-[6-(4-methylpiperazin-1-yl)pyridin-3-yl]-3-{4-[4-morpholin-4-yl-6-(3-oxa-8-azabicyclo[3.2.1]oct-8-yl)-1,3,5-triazin-2-yl]phenyl}urea] were 1.31 nM, 26 nM, 50 nM, 24 nM and 85.5 nM.
As for `CN(C)C1CCN(C(=O)c2ccc(NC(=O)Nc3ccc(-c4nc(N5CCOCC5)nc(N5C6COCC5COC6)n4)cc3)cc2)CC1` [Example 767, 1-(4-{[4-(dimethylamino)piperidin-1-yl]carbonyl}phenyl)-3-{4-[4-(3,7-dioxa-9-azabicyclo[3.3.1]non-9-yl)-6-morpholin-4-yl-1,3,5-triazin-2-yl]phenyl}urea], the IC50 at Human mTOR (FLAG-TOR) was determined as 0.2 nM; in assay [1] (MDA-MB-361, 72 h) it was 5 nM; in assay [2], 13 nM; on PI3K-α it was 2.1 nM; at PI3K-γ, 17 nM.
For the compound `CN(C)CCN(C)C(=O)c1ccc(NC(=O)Nc2ccc(-c3nc(N4CCOCC4)nc(N4C5COCC4COC5)n3)cc2)cc1` [Example 768, N-[2-(dimethylamino)ethyl]-4-[({4-[4-(3,7-dioxa-9-azabicyclo[3.3.1]non-9-yl)-6-morpholin-4-yl-1,3,5-triazin-2-yl]phenyl}carbamoyl)amino]-N-methylbenzamide], the IC50 was determined as 0.115 nM on Human mTOR (FLAG-TOR); 7 nM in assay [1] (72 h); 8 nM in assay [2]; 1.2 nM at PI3K-α; 18.5 nM at PI3K-γ.
As to `CN1CCN(C(=O)c2ccc(NC(=O)Nc3ccc(-c4nc(N5CCOCC5)nc(N5C6COCC5COC6)n4)cc3)cc2)CC1` [Example 769, 1-{4-[4-(3,7-dioxa-9-azabicyclo[3.3.1]non-9-yl)-6-morpholin-4-yl-1,3,5-triazin-2-yl]phenyl}-3-{4-[(4-methylpiperazin-1-yl)carbonyl]phenyl}urea], the 50% inhibitory concentration (IC50) on Human mTOR (FLAG-TOR) came out at 0.23 nM; in assay [1] (MDA-MB-361, 72 h), 6 nM; in assay [2], 14 nM; on PI3K-α, 2.1 nM; on PI3K-γ, 17.5 nM.
Regarding `COC(=O)c1ccc(NC(=O)Nc2ccc(-c3nc(N4CCOCC4)nc(N4C5COCC4COC5)n3)cc2)cc1` [Example 770, methyl 4-[({4-[4-(3,7-dioxa-9-azabicyclo[3.3.1]non-9-yl)-6-morpholin-4-yl-1,3,5-triazin-2-yl]phenyl}carbamoyl)amino]benzoate], the half-inhibitory concentration (IC50) at Human mTOR (FLAG-TOR) was determined as 0.27 nM; in assay [1] (72 h), 40 nM; in assay [2], 25 nM; on PI3K-α, 30.5 nM; on PI3K-γ, 99 nM.
Regarding `O=C(Nc1ccc(C(=O)O)cc1)Nc1ccc(-c2nc(N3CCOCC3)nc(N3C4COCC3COC4)n2)cc1` [Example 771, 4-[({4-[4-(3,7-dioxa-9-azabicyclo[3.3.1]non-9-yl)-6-morpholin-4-yl-1,3,5-triazin-2-yl]phenyl}carbamoyl)amino]benzoic acid], the half-maximal inhibitory concentration (IC50) at Human mTOR (FLAG-TOR) was 0.215 nM; in assay [1] (72 h), > 1000 nM; in assay [2], > 1000 nM; on PI3K-α, 19.5 nM; on PI3K-γ, 66 nM.
As for `O=C(Nc1ccc(C(=O)N2CCNCC2)cc1)Nc1ccc(-c2nc(N3CCOCC3)nc(N3C4COCC3COC4)n2)cc1` [Example 772, 1-{4-[4-(3,7-dioxa-9-azabicyclo[3.3.1]non-9-yl)-6-morpholin-4-yl-1,3,5-triazin-2-yl]phenyl}-3-[4-(piperazin-1-ylcarbonyl)phenyl]urea], the IC50 came out at 0.29 nM on Human mTOR (FLAG-TOR); 5 nM in assay [1] (MDA-MB-361, 72 h); 15 nM in assay [2]; 0.8 nM on PI3K-α; 9.5 nM at PI3K-γ.
For `CC(C)N1CCN(C(=O)c2ccc(NC(=O)Nc3ccc(-c4nc(N5CCOCC5)nc(N5C6COCC5COC6)n4)cc3)cc2)CC1` [Example 773, 1-{4-[4-(3,7-dioxa-9-azabicyclo[3.3.1]non-9-yl)-6-morpholin-4-yl-1,3,5-triazin-2-yl]phenyl}-3-{4-[(4-isopropylpiperazin-1-yl)carbonyl]phenyl}urea] the same measures were 0.305 nM, 4 nM, 6 nM, 3 nM and 36.5 nM.
Take `O=C(Nc1ccc(C(=O)NCCN2CCCC2)cc1)Nc1ccc(-c2nc(N3CCOCC3)nc(N3C4COCC3COC4)n2)cc1` [Example 774, 4-[({4-[4-(3,7-dioxa-9-azabicyclo[3.3.1]non-9-yl)-6-morpholin-4-yl-1,3,5-triazin-2-yl]phenyl}carbamoyl)amino]-N-(2-pyrrolidin-1-ylethyl)benzamide]: the IC50 at Human mTOR (FLAG-TOR) worked out at 0.23 nM; in assay [1] (72 h), 14 nM; in assay [2], 19 nM; at PI3K-α, 2 nM; on PI3K-γ it was 41.5 nM.
For `O=C(Nc1ccc(C(=O)NCCN2CCCCC2)cc1)Nc1ccc(-c2nc(N3CCOCC3)nc(N3C4COCC3COC4)n2)cc1` [Example 775, 4-[({4-[4-(3,7-dioxa-9-azabicyclo[3.3.1]non-9-yl)-6-morpholin-4-yl-1,3,5-triazin-2-yl]phenyl}carbamoyl)amino]-N-(2-piperidin-1-ylethyl)benzamide] the same measures were 0.23 nM, 5 nM, 7 nM, 2.5 nM and 46.5 nM.
For `O=C(Nc1ccc(C(=O)N2CCC(N3CCCC3)CC2)cc1)Nc1ccc(-c2nc(N3CCOCC3)nc(N3C4COCC3COC4)n2)cc1` [Example 776, 1-{4-[4-(3,7-dioxa-9-azabicyclo[3.3.1]non-9-yl)-6-morpholin-4-yl-1,3,5-triazin-2-yl]phenyl}-3-{4-[(4-pyrrolidin-1-ylpiperidin-1-yl)carbonyl]phenyl}urea], the 50% inhibitory concentration (IC50) was 0.345 nM on Human mTOR (FLAG-TOR); < 3.2 nM in assay [1] (MDA-MB-361, 72 h); 6 nM in assay [2]; 3 nM at PI3K-α; 29.5 nM at PI3K-γ.
